Reference: US5804576A, “Derivatives of 5-androsten-17-ones and 5-androstan-17-ones” (Research Corporation Technologies, Inc., priority 1986, dated 1998)

What was measured:
[1] = biological target: T1, purified bovine adrenal G6PDH (Bos taurus, UniProt F1MMK2); assay: Inhibition of purified bovine adrenal G6PDH; assay type: biochemical; conditions: for G6PDH Inhibition relative to DHEA: Table 3, DHEA = 1×; for inhibition at 10 µM / inhibition at 1 µM / inhibition at 0.1 µM: read-out: Percent Inhibition (G6PDH)
T1 construct: full-length, wild type, no tag
From the text: The compounds listed below are screened as inhibitors of purified bovine adrenal G6PDH activity as one predictor of cancer preventive action. The assay for testing the inhibition of purified bovine adrenal G6PDH is according to the procedure by Oertel, G. W. and Rebelein, I. in Biochem. Biophys. Acta, 184, 459-460 (1969). The results are given below in Table I:
Both of the above tests, i.e., the inhibition of mammalian glucose-6-phosphate dehydrogenase (G6PDH) and the inhibition of tumor promoter (TPA) stimulation of ^3 H-thymidine incorporation in mouse epidermis are recognized as indicators of cancer prophylactic activity. The following Table compares the efficacy of representative compounds of the present invention in these two tests with that of DHEA: […]

[2] = tested on: TPA (Tumor Promoter) Stimulation of Mouse Epidermal DNA; assay: Inhibition of TPA stimulation of mouse epidermal DNA synthesis (3H-thymidine incorporation), oral; assay type: in vivo, mouse (ICR male); conditions: Table 3; DHEA = 1×; oral
From the text: Synthesis rate by orally administered steroids.
The inhibition of tumor promoter stimulation of mouse epidermal DNA synthesis rate by steroids may also contribute to cancer preventive activity. The following assay is used:
ICR male mice (7-9 weeks old) were shaved on the back 1-2 days before use. Only mice showing no hair regrowth were used. Animals were orally intubated with a particular steroid suspended by homogenization in sesame oil or with sesame oil alone (controls). One hour later TPA (10 μg in 0.2 ml of acetone) or acetone vehicle was applied topically to the shaved skin. Twenty hours later, mice were injected i.p. with 60 μCi of ^3 H-thymidine 20 minutes before sacrifice. The animals were killed by cervical dislocation and the residual hair was removed with a depilatory agent. Epidermal scrapings were prepared according to the procedures of Hennings et al. (Cancer Res. 28, 53, 1968), homogenized in distilled water at 4° C., and the macromolecules precipitated with 0.4N trichloroacetic acid (TCA). Following 6 washes with absolute ethanol at room temperature, the nucleic acids were hydrolyzed with 0.5N TCA at 70° C. for 5 minutes. The hydrolysate (0.2 ml aliquots) were counted in an Intertechnique scintillation counter and assayed for DNA by the diphenylamine reaction.
The data are expressed as counts per minute (cpm) of tritium per μg of DNA.
A similar oral dose-response experiment with compound 16 and DHEA was performed.
Both of the above tests, i.e., the inhibition of mammalian glucose-6-phosphate dehydrogenase (G6PDH) and the inhibition of tumor promoter (TPA) stimulation of ^3 H-thymidine incorporation in mouse epidermis are recognized as indicators of cancer prophylactic activity. The following Table compares the efficacy of representative compounds of the present invention in these two tests with that of DHEA:
(§1) Male ICR mice were orally intubated with steroid suspended in sesame oil (0.5 ml/mouse) at the indicated dose. Mice not receiving steroid were given sesame oil alone. One hour later mice received topical application of TPA and 20 hours later the rate of ^3 H-thymidine incorporation into the epidermis was determined as described in Table 4.
as §1, with “TPA,” for “TPA”

[3] = Anti-obesity test (body weight, food consumption); assay type: in vivo, mouse (male A/J); conditions: Table 14; DHEA = 1×
Procedure: Male A/J mice (5 weeks old) were obtained from the Jackson Laboratory and were housed in polycarbonate cages (5 mice/cage) in animal quarters maintained at 24°±1° C. with 12 hours of light and 12 hours of darkness each day. One week after arrival, the mice were placed on a chow diet containing varying concentrations of DHEA or other steroid. Animals were weighed weekly; food consumption was determined weekly by subtracting the amount of food remaining in the cage from the amount added.
Male A/J (5 weeks old) were obtained from the Jackson Laboratory and were housed in polycarbonate cages (5 mice/cage) in animal quarters maintained at 24°±1° C. with 12 hours of light and 12 hours of darkness each day. One week after arrival, the mice were placed on a diet containing either DHEA, 19, or without steroid. Animals were weighed weekly. The concentration of DHEA or 19 used in the food was 0.54%.
Male A/J mice (5 weeks old) were obtained from the Jackson Laboratory and were housed in polycarbonate cages (5 mice/cage) in animal quarters maintained at 24°±1° C. with 12 hours of light and 12 hours of darkness each day. One week after arrival, the mice were placed on a show diet containing DHEA, 16, or 21 at 0.36%. Animals were weighed weekly.

C57BL/KsJ-db/db mice = assay: Anti-hyperglycemic activity (blood glucose); assay type: in vivo, mouse (C57BL/KsJ-db/db); conditions: Table 15; DHEA = 1×
Procedure: C57BL/KsJ-db/db 8 week old female mice were obtained and housed in polycarbonate cages in animal quarters maintained at 24° C. with 12 h of light and 12 h of darkness each day.
Mice were placed on a control chow or a chow diet containing either 0.4% DHEA or 0.2% of compound 16.
For determination of blood glucose levels, mice were bled from the orbital sinus using a heparinized capillary tube. 0.2 ml of blood was added to 1.8 ml of water to hemolyze the blood and glucose concentration was determined using the glucose oxidase assay.

T1 sequence (F1MMK2 31-70): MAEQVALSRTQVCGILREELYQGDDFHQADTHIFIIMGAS
T1 sequence (F1MMK2 101-575): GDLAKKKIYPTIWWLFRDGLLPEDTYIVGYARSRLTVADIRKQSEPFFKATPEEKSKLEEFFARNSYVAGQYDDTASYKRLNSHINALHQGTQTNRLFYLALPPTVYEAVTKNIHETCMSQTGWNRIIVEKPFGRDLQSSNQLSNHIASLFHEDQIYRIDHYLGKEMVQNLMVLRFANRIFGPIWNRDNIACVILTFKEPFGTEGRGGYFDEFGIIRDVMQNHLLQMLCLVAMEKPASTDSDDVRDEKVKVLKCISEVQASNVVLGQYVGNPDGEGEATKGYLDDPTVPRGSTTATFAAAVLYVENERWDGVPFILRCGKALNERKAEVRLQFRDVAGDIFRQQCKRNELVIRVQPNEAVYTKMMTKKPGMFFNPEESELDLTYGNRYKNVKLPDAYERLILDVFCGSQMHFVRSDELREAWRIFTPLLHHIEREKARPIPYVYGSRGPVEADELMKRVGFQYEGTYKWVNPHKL

Compound: C[C@@H]1C[C@@]2(C)C(=CC[C@@H]3[C@@H]2CC[C@]2(C)C(=O)CC[C@@H]32)C[C@H]1O
- G6PDH Inhibition relative to DHEA [1]: ~ 1 ×

Compound: C[C@]12CC[C@H](O)C[C@@H]1CC[C@@H]1[C@@H]2CC[C@]2(C)C(=O)[C@H](Br)C[C@@H]12 [Compound 4]
- inhibition at 10 µM ([1]; Conc. 10 μm): 90%

Compound: C[C@]12CC[C@H](O)CC1=CC[C@@H]1[C@@H]2CC[C@]2(C)C(=O)[C@H](Br)C[C@@H]12 [Compound 5]
- inhibition at 10 µM ([1]; Conc. 10 μm): 74%

Compound: C[C@]12CC[C@H](O)C[C@@H]1CC[C@@H]1[C@@H]2CC[C@]2(C)C(=O)[C@H](Cl)C[C@@H]12 [Compound 6]
- inhibition at 10 µM ([1]; Conc. 10 μm): 72%

Compound: C[C@]12CC[C@H](O)C[C@@H]1CC[C@@H]1[C@@H]2CC[C@]2(C)C(=O)[C@H](I)C[C@@H]12 [Compound 7]
- inhibition at 10 µM ([1]; Conc. 10 μm): 51%

Compound: C[C@]12CC[C@H](O)C[C@@H]1CC[C@@H]1[C@@H]2CC[C@]2(C)C(=O)[C@H](F)C[C@@H]12 [Compound 8]
- inhibition at 10 µM ([1]; Conc. 10 μm): 66%

Compound: C[C@]12CC[C@H](F)CC1=CC[C@@H]1[C@@H]2CC[C@]2(C)C(=O)CC[C@@H]12 [Compound 9]
- inhibition at 10 µM ([1]; Conc. 10 μm): 22%

Compound: C[C@]12CC[C@@H](O)C[C@@H]1CC[C@@H]1[C@@H]2CC[C@]2(C)C(=O)CC[C@@H]12 [Compound 10]
- inhibition at 10 µM ([1]; Conc. 10 μm): 35%

Compound: C[C@@H]1[C@H](O)CC[C@@]2(C)[C@H]1CC[C@@H]1[C@@H]2CC[C@]2(C)C(=O)CC[C@@H]12 [Compound 11]
- inhibition at 10 µM ([1]; Conc. 10 μm): 35%

Compound: C[C@H]1C2=CC[C@@H]3[C@H](CC[C@]4(C)C(=O)CC[C@@H]34)[C@@]2(C)CC[C@@H]1O [Compound 11a]
- inhibition at 1 µM ([1]; Conc. 1 μm): 72%
- inhibition at 10 µM ([1]; Conc. 10 μm): 87%

Compound: CC1(C)C2=CC[C@@H]3[C@H](CC[C@]4(C)C(=O)CC[C@@H]34)[C@@]2(C)CC[C@@H]1O [Compound 12]
- inhibition at 10 µM ([1]; Conc. 10 μm): 48%

Compound: CC[C@H]1CC[C@@]2(C)C(=CC[C@@H]3[C@@H]2CC[C@]2(C)C(=O)CC[C@@H]32)C1 [Compound 13]
- inhibition at 0.1 µM ([1]; Conc. 0.1 μm): 58%
- inhibition at 1 µM ([1]; Conc. 1 μm): 55%
- inhibition at 10 µM ([1]; Conc. 10 μm): 73%

Compound: C[C@]12CCCCC1=CC[C@@H]1[C@@H]2CC[C@]2(C)C(=O)CC[C@@H]12 [Compound 14]
- inhibition at 1 µM ([1]; Conc. 1 μm): 30%
- inhibition at 10 µM ([1]; Conc. 10 μm): 75%

Compound: CCCC[C@H]1CC[C@@]2(C)C(=CC[C@@H]3[C@@H]2CC[C@]2(C)C(=O)CC[C@@H]32)C1 [Compound 17]
- inhibition at 0.1 µM ([1]; Conc. 0.1 μm): 49%
- inhibition at 1 µM ([1]; Conc. 1 μm): 45%
- inhibition at 10 µM ([1]; Conc. 10 μm): 60%

Compound: CC1=C2C[C@@H](O)CC[C@]2(C)[C@H]2CC[C@]3(C)C(=O)CC[C@H]3[C@@H]2C1 [Compound 18]
- inhibition at 0.1 µM ([1]; Conc. 0.1 μm): 10%
- inhibition at 1 µM ([1]; Conc. 1 μm): 18%
- inhibition at 10 µM ([1]; Conc. 10 μm): 45%

Compound: C[C@H]1CC[C@@]2(C)C(=CC[C@@H]3[C@@H]2CC[C@]2(C)C(=O)[C@](C)(F)C[C@@H]32)C1 [Compound 22]
- inhibition at 1 µM ([1]; Conc. 1 μm): 53%
- inhibition at 10 µM ([1]; Conc. 10 μm): 65%

Compound: C[C@]12CC[C@H](O)C[C@@H]1CC[C@@H]1[C@@H]2CC[C@]2(C)C(=O)CC[C@@H]12 [drawing 85]
- G6PDH Inhibition relative to DHEA [1]: ~ 1.5 ×
- Inhibition of TPA Effect on Epidermis Following Oral Administration, relative to DHEA [2]: ~ 1 ×

Compound: C[C@]12CCCC[C@@H]1CC[C@@H]1[C@@H]2CC[C@]2(C)C(=O)CC[C@@H]12 [drawing 86]
- G6PDH Inhibition relative to DHEA [1]: > 2 ×
- Inhibition of TPA Effect on Epidermis Following Oral Administration, relative to DHEA [2]: ~ 1.5 ×

Compound: C[C@H]1CC[C@@]2(C)C(=CC[C@@H]3[C@@H]2CC[C@]2(C)C(=O)CC[C@@H]32)C1 [drawing 87]
- G6PDH Inhibition relative to DHEA [1]: ~ 1 ×
- Inhibition of TPA Effect on Epidermis Following Oral Administration, relative to DHEA [2]: ~ 3 ×

Compound: C[C@H]1CC[C@@]2(C)C(=CC[C@@H]3[C@@H]2CC[C@]2(C)C(=O)[C@H](C)C[C@@H]32)C1 [drawing 88]
- G6PDH Inhibition relative to DHEA [1]: ~ 0.5 ×

Compound: C[C@H]1CC[C@@]2(C)C(=CC[C@@H]3[C@@H]2CC[C@]2(C)C(=O)[C@H](O)C[C@@H]32)C1 [drawing 89]
- G6PDH Inhibition relative to DHEA [1]: ~ 2 ×
- Inhibition of TPA Effect on Epidermis Following Oral Administration, relative to DHEA [2]: 5 ×

Compound: C[C@]12CC[C@H](Cl)CC1=CC[C@@H]1[C@@H]2CC[C@]2(C)C(=O)CC[C@@H]12 [drawing 90]
- G6PDH Inhibition relative to DHEA [1]: 0.5 ×
- Inhibition of TPA Effect on Epidermis Following Oral Administration, relative to DHEA [2]: 1-1.5 ×

Compound: CC[C@H]1CC[C@@]2(C)C(=CC[C@@H]3[C@@H]2CC[C@]2(C)C(=O)CC[C@@H]32)C1 [drawing 91]
- G6PDH Inhibition relative to DHEA [1]: ~ 1.5 ×

Compound: CCCC[C@H]1CC[C@@]2(C)C(=CC[C@@H]3[C@@H]2CC[C@]2(C)C(=O)CC[C@@H]32)C1 [drawing 92]
- G6PDH Inhibition relative to DHEA [1]: ~ 2 ×

Compound: C[C@H]1CC[C@@]2(C)C(=CC[C@@H]3[C@@H]2CC[C@]2(C)C(=O)[C@H](F)C[C@@H]32)C1 [drawing 94]
- G6PDH Inhibition relative to DHEA [1]: 5-10 ×
- Inhibition of TPA Effect on Epidermis Following Oral Administration, relative to DHEA [2]: > 10 ×

Compound: C[C@]12CC[C@H](O)C[C@@H]1CC[C@@H]1[C@@H]2CC[C@]2(C)C(=O)CC[C@@H]12 [drawing 95]
- Anti-obesity Activity relative to DHEA [3]: ~ 0.5 ×

Compound: C[C@]12CCCC[C@@H]1CC[C@@H]1[C@@H]2CC[C@]2(C)C(=O)CC[C@@H]12 [drawing 96]
- Anti-obesity Activity relative to DHEA [3]: ~ 0.5 ×

Compound: C[C@H]1CC[C@@]2(C)C(=CC[C@@H]3[C@@H]2CC[C@]2(C)C(=O)CC[C@@H]32)C1 [drawing 97]
- Anti-obesity Activity relative to DHEA [3]: ~ 3 ×

Compound: C[C@H]1CC[C@@]2(C)C(=CC[C@@H]3[C@@H]2CC[C@]2(C)C(=O)[C@H](O)C[C@@H]32)C1 [drawing 98]
- Anti-obesity Activity relative to DHEA [3]: ~ 0.8 ×

Compound: C[C@H]1CC[C@@]2(C)C(=CC[C@@H]3[C@@H]2CC[C@]2(C)C(=O)[C@H](C)C[C@@H]32)C1 [drawing 99]
- Anti-obesity Activity relative to DHEA [3]: ~ 1 ×

Compound: C[C@]12CC[C@H](Cl)CC1=CC[C@@H]1[C@@H]2CC[C@]2(C)C(=O)CC[C@@H]12 [drawing 100]
- Anti-obesity Activity relative to DHEA [3]: ~ 1 ×

Compound: CC[C@H]1CC[C@@]2(C)C(=CC[C@@H]3[C@@H]2CC[C@]2(C)C(=O)CC[C@@H]32)C1 [drawing 101]
- Anti-obesity Activity relative to DHEA [3]: ~ 0.5 ×

Compound: C[C@H]1CC[C@@]2(C)C(=CC[C@@H]3[C@@H]2CC[C@]2(C)C(=O)CC[C@@H]32)C1 [drawing 102]
- Anti-diabetic Activity relative to DHEA (C57BL/KsJ-db/db mice): 3 ×

Compound: C[C@]12CC[C@H](Cl)CC1=CC[C@@H]1[C@@H]2CC[C@]2(C)C(=O)CC[C@@H]12 [drawing 103]
- Anti-diabetic Activity relative to DHEA (C57BL/KsJ-db/db mice): 1 ×

Compound: Androst-5-en-17-one [Compound 15, reference compound]
- Percent Inhibition (G6PDH) ([1]; Conc. 0.1 μm): 26%
- Percent Inhibition (G6PDH) ([1]; Conc. 1 μm): 40%
- Percent Inhibition (G6PDH) ([1]; Conc. 10 μm): 46%
